{"source": "paper PMC12715762", "about": "“Discovery of VU6052254: A Novel, Potent M1 Positive Allosteric Modulator” (ACS Chemical Neuroscience, 2025)", "key": {"rat M1": {"target": "T1, rat M1 (Rattus norvegicus, UniProt P08482)", "T1 construct": "expressed in transfected cells", "T1 sequence (P08482 1-460)": "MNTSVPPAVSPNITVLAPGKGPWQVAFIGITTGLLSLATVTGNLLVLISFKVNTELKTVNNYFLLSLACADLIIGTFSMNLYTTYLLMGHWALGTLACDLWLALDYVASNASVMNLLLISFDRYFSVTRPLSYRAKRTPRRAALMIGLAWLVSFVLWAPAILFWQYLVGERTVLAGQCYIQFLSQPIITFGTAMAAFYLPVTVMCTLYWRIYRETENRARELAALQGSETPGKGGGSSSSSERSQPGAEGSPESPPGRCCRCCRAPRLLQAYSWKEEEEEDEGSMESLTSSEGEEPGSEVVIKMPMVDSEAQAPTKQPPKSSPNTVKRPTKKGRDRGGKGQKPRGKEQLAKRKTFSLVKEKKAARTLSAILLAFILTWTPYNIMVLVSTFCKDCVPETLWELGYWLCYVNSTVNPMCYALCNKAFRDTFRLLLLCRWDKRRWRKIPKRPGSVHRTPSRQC", "assay": "M1 agonist calcium mobilization assay (rat)", "type": "cell-based"}, "CYP 2C8": {"target": "CYP 2C8 (Homo sapiens, UniProt P10632)", "sequence (P10632 whole entry)": "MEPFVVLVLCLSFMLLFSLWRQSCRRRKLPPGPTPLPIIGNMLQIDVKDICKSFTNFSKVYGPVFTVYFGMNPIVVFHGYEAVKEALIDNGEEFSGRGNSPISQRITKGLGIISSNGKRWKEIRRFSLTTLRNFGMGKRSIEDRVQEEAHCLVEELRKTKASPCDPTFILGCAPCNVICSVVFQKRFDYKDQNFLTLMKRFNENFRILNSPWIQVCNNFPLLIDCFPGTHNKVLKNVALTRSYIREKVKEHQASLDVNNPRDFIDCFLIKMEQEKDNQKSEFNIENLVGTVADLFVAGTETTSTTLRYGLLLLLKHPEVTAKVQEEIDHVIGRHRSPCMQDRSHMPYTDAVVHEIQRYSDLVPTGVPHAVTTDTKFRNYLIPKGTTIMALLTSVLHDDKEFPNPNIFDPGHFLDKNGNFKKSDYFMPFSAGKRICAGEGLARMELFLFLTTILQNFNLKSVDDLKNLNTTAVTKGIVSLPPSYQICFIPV", "assay": "CYP450 inhibition", "type": "in vitro ADME"}, "CYP450": {"system": "CYP450", "assay": "time-dependent CYP450 inhibition", "type": "in vitro ADME", "settings": "result in words"}, "CV ion channels": {"system": "CV ion channels", "assay": "CV ion channel EP panel", "type": "cell-based", "settings": "result in words"}, "3A4": {"target": "3A4 (Homo sapiens, UniProt P08684)", "sequence (P08684 whole entry)": "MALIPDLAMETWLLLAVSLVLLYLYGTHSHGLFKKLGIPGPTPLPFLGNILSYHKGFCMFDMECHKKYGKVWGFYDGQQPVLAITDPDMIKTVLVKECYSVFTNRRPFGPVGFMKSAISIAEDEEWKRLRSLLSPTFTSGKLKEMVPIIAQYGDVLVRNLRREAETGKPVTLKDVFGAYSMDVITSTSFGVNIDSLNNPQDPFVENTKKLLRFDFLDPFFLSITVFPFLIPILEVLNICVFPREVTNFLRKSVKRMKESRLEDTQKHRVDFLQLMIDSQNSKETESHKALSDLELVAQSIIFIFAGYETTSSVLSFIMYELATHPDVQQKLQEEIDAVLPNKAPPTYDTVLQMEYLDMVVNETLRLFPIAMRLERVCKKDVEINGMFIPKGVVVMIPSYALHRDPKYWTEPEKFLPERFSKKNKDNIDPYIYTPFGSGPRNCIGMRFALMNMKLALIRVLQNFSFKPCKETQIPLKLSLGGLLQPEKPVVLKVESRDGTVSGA", "assay": "CYP450 phenotyping, recombinant enzymes", "type": "in vitro ADME", "settings": "3A4, panel of eight recombinant enzymes"}, "[1]": {"assay": "rat oral dose escalation PK study", "type": "in vivo", "settings": "for AUC(0-t) / Cmax / AUC / Tmax: Sprague-Dawley, plasma; for Cmax / AUC / Tmax: rat, po", "description": "Pharmacokinetic profiles in rats following oral single escalating doses Single escalating oral dosing in Sprague-Dawley rats was performed at Frontage Laboratories according to their non-GLP Standard Operating Procedure and IACUC protocols. In short, […]\narterial blood was collected from a femoral artery catheter, and compound concentration was determined in plasma by LC-MS/MS following their non-GLP protocol. PK parameters were determined using Phoenix WinNonlin software (version 6.3). […]"}, "Adrenergic β1": {"target": "Adrenergic β1 (Homo sapiens, UniProt P08588)", "sequence (P08588 whole entry)": "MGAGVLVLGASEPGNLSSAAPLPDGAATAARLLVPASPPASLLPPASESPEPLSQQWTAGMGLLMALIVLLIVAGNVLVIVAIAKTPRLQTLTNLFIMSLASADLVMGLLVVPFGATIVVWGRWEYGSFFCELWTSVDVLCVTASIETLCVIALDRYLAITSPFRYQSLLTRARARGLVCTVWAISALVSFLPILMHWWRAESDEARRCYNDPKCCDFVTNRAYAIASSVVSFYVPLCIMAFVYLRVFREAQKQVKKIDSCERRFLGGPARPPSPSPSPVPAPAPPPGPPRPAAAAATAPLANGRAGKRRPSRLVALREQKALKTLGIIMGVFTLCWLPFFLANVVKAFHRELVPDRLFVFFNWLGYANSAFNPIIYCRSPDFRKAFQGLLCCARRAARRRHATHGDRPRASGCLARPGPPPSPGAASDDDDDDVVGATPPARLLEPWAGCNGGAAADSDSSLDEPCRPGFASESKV", "assay": "Eurofins radioligand binding"}, "Dopamine D2S": {"target": "Dopamine D2S (Homo sapiens, UniProt P14416)", "sequence (P14416 1-414 isoform P14416-2)": "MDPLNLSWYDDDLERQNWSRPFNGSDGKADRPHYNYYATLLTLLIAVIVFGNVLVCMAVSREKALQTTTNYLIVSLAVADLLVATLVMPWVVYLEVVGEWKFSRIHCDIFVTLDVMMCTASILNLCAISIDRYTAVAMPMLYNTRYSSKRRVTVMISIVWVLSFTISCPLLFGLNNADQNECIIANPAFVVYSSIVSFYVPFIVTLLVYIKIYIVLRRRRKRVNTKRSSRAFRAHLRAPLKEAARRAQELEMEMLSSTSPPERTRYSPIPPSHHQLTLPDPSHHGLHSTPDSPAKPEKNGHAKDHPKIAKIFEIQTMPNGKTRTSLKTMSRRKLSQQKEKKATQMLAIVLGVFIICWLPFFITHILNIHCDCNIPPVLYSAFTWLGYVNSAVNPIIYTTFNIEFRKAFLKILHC", "assay": "Eurofins radioligand binding"}, "Histamine H1": {"target": "Histamine H1 (Homo sapiens, UniProt P35367)", "assay": "Eurofins radioligand binding"}, "Muscarinic M3": {"target": "Muscarinic M3 (Homo sapiens, UniProt P20309)", "sequence (P20309 whole entry)": "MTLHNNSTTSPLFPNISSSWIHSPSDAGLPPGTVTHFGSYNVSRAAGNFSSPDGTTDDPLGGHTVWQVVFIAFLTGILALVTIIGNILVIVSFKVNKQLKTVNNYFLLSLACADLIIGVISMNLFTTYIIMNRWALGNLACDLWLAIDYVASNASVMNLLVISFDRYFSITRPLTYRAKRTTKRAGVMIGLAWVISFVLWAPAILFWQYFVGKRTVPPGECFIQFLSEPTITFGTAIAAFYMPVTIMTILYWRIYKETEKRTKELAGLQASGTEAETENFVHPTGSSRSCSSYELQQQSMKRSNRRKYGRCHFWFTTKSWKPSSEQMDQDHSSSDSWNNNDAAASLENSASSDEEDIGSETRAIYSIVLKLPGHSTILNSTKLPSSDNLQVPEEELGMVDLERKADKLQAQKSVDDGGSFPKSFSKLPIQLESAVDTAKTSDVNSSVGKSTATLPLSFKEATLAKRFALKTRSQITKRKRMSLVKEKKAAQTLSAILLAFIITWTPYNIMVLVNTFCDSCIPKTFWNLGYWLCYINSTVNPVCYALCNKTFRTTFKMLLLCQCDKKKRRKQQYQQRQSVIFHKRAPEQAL", "assay": "Eurofins radioligand binding"}, "[2]": {"target": "Nicotinic Acetylcholine α1, Bungarotoxin (Homo sapiens, UniProt P02708+P07510+Q07001)", "sequence (P11230 24-501)": "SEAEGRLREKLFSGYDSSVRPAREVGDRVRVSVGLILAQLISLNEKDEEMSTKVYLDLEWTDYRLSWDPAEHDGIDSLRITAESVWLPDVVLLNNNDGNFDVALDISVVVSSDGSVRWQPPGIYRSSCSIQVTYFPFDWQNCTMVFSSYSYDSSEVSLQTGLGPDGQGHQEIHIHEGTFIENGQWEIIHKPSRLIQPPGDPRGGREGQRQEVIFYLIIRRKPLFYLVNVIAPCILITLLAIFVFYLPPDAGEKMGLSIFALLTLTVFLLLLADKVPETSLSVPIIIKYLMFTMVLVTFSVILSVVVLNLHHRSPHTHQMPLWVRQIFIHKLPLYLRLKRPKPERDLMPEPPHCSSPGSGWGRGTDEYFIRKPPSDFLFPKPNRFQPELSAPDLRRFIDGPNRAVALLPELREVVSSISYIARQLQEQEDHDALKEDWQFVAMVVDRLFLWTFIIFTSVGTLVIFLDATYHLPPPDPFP", "sequence (P07510 23-517)": "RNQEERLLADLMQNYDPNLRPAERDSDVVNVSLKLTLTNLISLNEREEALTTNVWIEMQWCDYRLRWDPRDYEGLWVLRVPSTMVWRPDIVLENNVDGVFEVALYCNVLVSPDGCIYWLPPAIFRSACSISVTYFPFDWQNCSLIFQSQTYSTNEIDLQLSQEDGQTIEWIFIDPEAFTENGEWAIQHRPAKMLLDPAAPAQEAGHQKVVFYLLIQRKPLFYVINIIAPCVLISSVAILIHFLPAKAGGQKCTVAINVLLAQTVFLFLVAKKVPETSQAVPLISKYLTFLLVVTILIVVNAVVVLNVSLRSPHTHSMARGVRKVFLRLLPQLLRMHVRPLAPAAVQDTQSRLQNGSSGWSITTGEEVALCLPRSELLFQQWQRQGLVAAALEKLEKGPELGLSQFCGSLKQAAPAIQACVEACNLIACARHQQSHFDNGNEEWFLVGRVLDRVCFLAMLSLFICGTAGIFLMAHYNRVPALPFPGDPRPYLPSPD", "sequence (P02708 21-457)": "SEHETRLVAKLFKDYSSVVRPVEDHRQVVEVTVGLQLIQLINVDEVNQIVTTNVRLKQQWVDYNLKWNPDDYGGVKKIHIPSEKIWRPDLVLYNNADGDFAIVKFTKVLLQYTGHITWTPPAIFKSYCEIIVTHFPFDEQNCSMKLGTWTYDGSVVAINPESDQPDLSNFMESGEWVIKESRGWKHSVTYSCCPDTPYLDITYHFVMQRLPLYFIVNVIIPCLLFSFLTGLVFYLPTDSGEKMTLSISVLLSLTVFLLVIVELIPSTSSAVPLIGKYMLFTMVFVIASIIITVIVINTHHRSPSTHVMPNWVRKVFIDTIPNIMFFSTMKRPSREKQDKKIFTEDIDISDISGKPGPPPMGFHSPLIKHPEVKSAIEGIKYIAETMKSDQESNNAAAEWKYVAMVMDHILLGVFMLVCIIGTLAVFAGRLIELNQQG", "sequence (Q07001 22-517)": "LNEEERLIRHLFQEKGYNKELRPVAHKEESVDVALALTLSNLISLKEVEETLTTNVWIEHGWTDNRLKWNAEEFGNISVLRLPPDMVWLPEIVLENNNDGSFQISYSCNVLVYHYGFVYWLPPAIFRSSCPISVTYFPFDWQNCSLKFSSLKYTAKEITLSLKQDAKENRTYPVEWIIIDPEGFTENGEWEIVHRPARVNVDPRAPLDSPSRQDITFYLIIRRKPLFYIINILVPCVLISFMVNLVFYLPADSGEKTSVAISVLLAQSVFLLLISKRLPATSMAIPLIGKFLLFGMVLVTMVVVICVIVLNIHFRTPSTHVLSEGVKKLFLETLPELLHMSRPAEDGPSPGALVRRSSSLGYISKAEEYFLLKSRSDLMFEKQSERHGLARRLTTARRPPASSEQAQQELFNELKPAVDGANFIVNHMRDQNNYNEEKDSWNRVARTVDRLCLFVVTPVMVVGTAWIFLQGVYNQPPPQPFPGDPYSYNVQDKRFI", "assay": "Eurofins radioligand binding", "settings": "read-out: % Inhibition at 10 µM"}, "Prostanoid EP4": {"target": "Prostanoid EP4 (Homo sapiens, UniProt P35408)", "sequence (P35408 whole entry)": "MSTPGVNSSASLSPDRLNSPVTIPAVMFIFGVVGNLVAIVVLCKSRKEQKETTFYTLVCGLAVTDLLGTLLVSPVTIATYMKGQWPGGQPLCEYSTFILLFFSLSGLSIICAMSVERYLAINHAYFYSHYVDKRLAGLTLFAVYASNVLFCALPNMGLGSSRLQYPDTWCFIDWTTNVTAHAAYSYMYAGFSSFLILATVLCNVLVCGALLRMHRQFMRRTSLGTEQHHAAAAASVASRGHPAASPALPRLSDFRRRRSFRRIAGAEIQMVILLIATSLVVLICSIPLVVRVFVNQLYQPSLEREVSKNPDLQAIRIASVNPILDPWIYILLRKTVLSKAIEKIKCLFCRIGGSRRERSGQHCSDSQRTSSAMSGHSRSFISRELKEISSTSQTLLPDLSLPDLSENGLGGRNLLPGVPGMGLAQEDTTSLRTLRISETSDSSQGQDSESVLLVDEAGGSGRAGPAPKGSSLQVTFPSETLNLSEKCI", "assay": "Eurofins radioligand binding"}, "Rolipram": {"system": "Rolipram", "assay": "Eurofins radioligand binding", "settings": "Rat"}, "Thyroid Hormone": {"system": "Thyroid Hormone", "assay": "Eurofins radioligand binding", "settings": "Rat"}, "[3]": {"settings": "10 mg/kg, rat PO 10 mpk, 10% Tween"}, "[4]": {"settings": "10 mg/kg, rat PO 10 mpk, 100% PEG"}, "[5]": {"settings": "30 mg/kg, rat PO 30 mpk, 10% Tween"}, "[6]": {"settings": "30 mg/kg, rat PO 30 mpk, 100% PEG"}, "[7]": {"settings": "100 mg/kg, rat PO 100 mpk, 10% Tween"}, "[8]": {"settings": "100 mg/kg, rat PO 100 mpk, 100% PEG"}}, "note": "“Also recorded” adds a separate entry of the source."}
{"smiles": "Cn1cc2c(-c3cc(F)c(CN4Cc5ncccc5C4=O)c(F)c3)ccc(C(C)(C)O)c2n1", "note": "[compound 7]", "values": [{"measurement": "rM1 Agonist AChmax (%)", "setting": "rat M1; rat M1, % ACh max, n = 5", "value": 17, "unit": "%"}, {"measurement": "EC50", "setting": "rat M1; rat M1, n = 5, read-out: rM1 Agonist EC50", "value": "> 10", "unit": "µM"}, {"measurement": "IC50", "setting": "CYP 2C8", "value": "> 30", "unit": "µM"}, {"measurement": "time-dependent CYP450 inhibition", "setting": "CYP450", "value": "no evidence of time-dependent inhibition; also recorded: no CYP450 inhibition or time-dependent CYP450 inhibition liabilities"}, {"measurement": "activity in CV ion channel EP panel", "setting": "CV ion channels", "value": "no significant activities"}, {"measurement": "contribution to metabolism, CYP450 phenotyping", "setting": "3A4", "value": 96.8, "unit": "%"}, {"measurement": "AUC(0-t)", "setting": "[1]; rat PO 10 mg/kg, 10% aqueous Tween 80 suspension", "value": 23800, "unit": "ng·h/mL"}, {"measurement": "AUC(0-t)", "setting": "[1]; rat PO 30 mg/kg, 10% aqueous Tween 80 suspension", "value": 66500, "unit": "ng·h/mL"}, {"measurement": "AUC(0-t)", "setting": "[1]; rat PO 100 mg/kg, 10% aqueous Tween 80 suspension", "value": 96200, "unit": "ng·h/mL"}, {"measurement": "Cmax", "setting": "[1]; 10 mg/kg, rat PO 10 mg/kg, 10% aqueous Tween 80 suspension", "value": 2340, "unit": "ng/mL"}, {"measurement": "AUC", "setting": "[1]; [3]", "value": 23800, "unit": "ng·h/mL"}, {"measurement": "Tmax", "setting": "[1]; [3]", "value": 2.17, "unit": "h"}, {"measurement": "AUC", "setting": "[1]; [4]", "value": 20600, "unit": "ng·h/mL"}, {"measurement": "Cmax", "setting": "[1]; [4]", "value": 2390, "unit": "ng/mL"}, {"measurement": "Tmax", "setting": "[1]; [4]", "value": 3.33, "unit": "h"}, {"measurement": "Cmax", "setting": "[1]; 30 mg/kg, rat PO 30 mg/kg, 10% aqueous Tween 80 suspension", "value": 7640, "unit": "ng/mL"}, {"measurement": "AUC", "setting": "[1]; [5]", "value": 66700, "unit": "ng·h/mL"}, {"measurement": "Tmax", "setting": "[1]; [5]", "value": 2.67, "unit": "h"}, {"measurement": "AUC", "setting": "[1]; [6]", "value": 115000, "unit": "ng·h/mL"}, {"measurement": "Cmax", "setting": "[1]; [6]", "value": 12200, "unit": "ng/mL"}, {"measurement": "Tmax", "setting": "[1]; [6]", "value": 4, "unit": "h"}, {"measurement": "Cmax", "setting": "[1]; 100 mg/kg, rat PO 100 mg/kg, 10% aqueous Tween 80 suspension", "value": 10900, "unit": "ng/mL"}, {"measurement": "AUC", "setting": "[1]; [7]", "value": 96800, "unit": "ng·h/mL"}, {"measurement": "Tmax", "setting": "[1]; [7]", "value": 4, "unit": "h"}, {"measurement": "AUC", "setting": "[1]; [8]", "value": 316000, "unit": "ng·h/mL"}, {"measurement": "Cmax", "setting": "[1]; [8]", "value": 24700, "unit": "ng/mL"}, {"measurement": "Tmax", "setting": "[1]; [8]", "value": 4, "unit": "h"}, {"measurement": "cholinergic signs or adverse events in rat dose escalation", "setting": "[1]; result in words", "value": "no cholinergic signs or adverse events were noted in rats"}, {"measurement": "inhibition at 10 µM", "setting": "Adrenergic β1", "value": 5, "unit": "%"}, {"measurement": "inhibition at 10 µM", "setting": "Dopamine D2S", "value": -2, "unit": "%"}, {"measurement": "inhibition at 10 µM", "setting": "Histamine H1", "value": 4, "unit": "%"}, {"measurement": "inhibition at 10 µM", "setting": "Muscarinic M3", "value": 7, "unit": "%"}, {"measurement": "inhibition at 10 µM", "setting": "[2]", "value": 2, "unit": "%"}, {"measurement": "inhibition at 10 µM", "setting": "Prostanoid EP4", "value": 21, "unit": "%"}, {"measurement": "% Inhibition at 10 µM", "setting": "Rolipram", "value": 61, "unit": "%"}, {"measurement": "% Inhibition at 10 µM", "setting": "Thyroid Hormone", "value": -1, "unit": "%"}]}
